Measurements as given in ChEMBL document CHEMBL1154856, “Leuconicines A-G and (-)-eburnamaline, biologically active strychnan and eburnan alkaloids from Leuconotis” (J Nat Prod, 2009).

Experiments:
Format in all cases: functional, cell-based
[1] = Cytotoxicity against vincristine-resistant human KB/VJ300 cells in presence of 0.1 ug/ml vincristine
KB = assay: Cytotoxicity against vincristine-sensitive human KB cells
[2] = Cytotoxicity against vincristine-resistant human KB/VJ300 cells
[3] = Cytotoxicity against vincristine-resistant human KB/VJ300 cells in presence of 0.121 uM vincristine

## CC[C@@H]1C[N+]2([O-])CC[C@]34c5ccccc5-n5c3c(cc(C(=O)OC)c5=O)[C@H]1C[C@@H]42 (some centres undefined) [LEUCONICINE G]
[1]
  IC50: > 25 µg/mL
KB
  IC50: > 25 µg/mL
[2]
  IC50: > 25 µg/mL

## CCC1=CN2CC[C@]34c5ccccc5-n5c3c(cc(C(=O)O)c5=O)[C@H]1C[C@H]24 [LEUCONICINE E]
[1]
  IC50: 13.5 µg/mL
[3]
  IC50: 37.6 µM
KB
  IC50: > 25 µg/mL
[2]
  IC50: > 25 µg/mL

## CC[C@@H]1CN2CC[C@]34c5ccccc5-n5c3c(cc(C(N)=O)c5=O)[C@H]1C[C@H]24 [LEUCONICINE A]
[1]
  IC50: 2.57 µg/mL
[3]
  IC50: 7.12 µM
KB
  IC50: > 25 µg/mL
[2]
  IC50: > 25 µg/mL

## CCC1=CN2CC[C@]34c5ccccc5-n5c3c(cc(C(N)=O)c5=O)[C@H]1C[C@H]24 [LEUCONICINE C]
[1]
  IC50: 3.86 µg/mL
[3]
  IC50: 10.8 µM
KB
  IC50: > 25 µg/mL
[2]
  IC50: > 25 µg/mL

## CC[C@@H]1CN2CC[C@]34c5ccccc5-n5c3c(cc(C(=O)OC)c5=O)[C@H]1C[C@H]24 [LEUCONICINE B]
[1]
  IC50: 1.98 µg/mL
[3]
  IC50: 5.27 µM
KB
  IC50: > 25 µg/mL
[2]
  IC50: > 25 µg/mL

## CCC1=CN2CC[C@]34c5ccccc5-n5c3c(cc(C(=O)OC)c5=O)[C@H]1C[C@H]24 [MELODININE B]
[1]
  IC50: 4.62 µg/mL
[3]
  IC50: 12.3 µM
KB
  IC50: > 25 µg/mL
[2]
  IC50: > 25 µg/mL

## CC[C@@]12CCCN3CCc4c(n(c5ccccc45)[C@H](O)[C@@H]1O)[C@H]32
[1]
  IC50: > 25 µg/mL
KB
  IC50: > 25 µg/mL
[2]
  IC50: > 25 µg/mL

## CC[C@@H]1C[N+]2([O-])CC[C@]34c5ccccc5-n5c3c(cc(C(N)=O)c5=O)[C@H]1C[C@@H]42 (some centres undefined) [LEUCONICINE F]
[1]
  IC50: > 25 µg/mL
KB
  IC50: > 25 µg/mL
[2]
  IC50: > 25 µg/mL
